Experimental data: patent US7960397B2, “6,9-disubstituted purine derivatives and their use as cosmetics and cosmetic compositions” (Institute of Experimental Botany, Academy of Sciences of …, priority 2007, dated 2011)
Like-named read-outs stand apart in the source and are kept apart here.

Columns and labels:
[1] = test system: cytokinin-dependent tobacco callus Nicotiana tabacum L. cv. Wisconsin 38; assay: Cytokinin activity in tobacco callus bioassay; assay type: cell-based; settings: for concentration with highest activity: growth of tobacco callus, four weeks of cultivation, tested 10^−8 M to 10^−4 M; for Activity (%) [10^−5 mol · l^−1 BAP = 100%]: increase of fresh callus weight at the concentration with highest activity, 10^−5 M BAP = 100%
[2] = test system: Amaranthus caudatus cotyledon/hypocotyl explants; assay: Amaranthus bioassay (betacyanin content); set-up: species or system Amaranthus caudatus var. atropurpurea; settings: for concentration with highest activity: betacyanin content after 48 h incubation, tested 10^−8 M to 10^−4 M; for Activity (%) [10^−5 mol · l^−1 BAP = 100%]: betacyanin content at the concentration with highest activity, 10^−5 M BAP = 100%
Summary of the method: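 Amaranthus caudatus explants (cotyledons plus hypocotyl) from 72 h dark-grown seedlings were incubated in darkness on medium with 10 mmol Na2HPO4–KH2PO4 pH 6.8, 5 mmol tyrosine and test compound; stock was 10^−3 M in DMSO/water. Betacyanin was measured as A537−A620 and activity expressed relative to 10^−5 M BAP (100%).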

[3] = test system: excised wheat leaf tips; assay: Antisenescence test, retention of chlorophyll in excised wheat leaf tips; set-up: species or system Triticum aestivum cv. Hereward; settings: for activity (%) [10^−4 mol · l^−1 BAP = 100%]: retention of chlorophyll in excised wheat leaf tips at the concentration with highest activity, 10 replicate determinations; for concentration with highest activity: retention of chlorophyll in excised wheat leaf tips, tested range 10^−8 M to 10^−4 M, 96 h in the dark at 25° C.
Summary of the method: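 Winter wheat seedlings (Triticum aestivum cv. Hereward) were raised on vermiculite with Knop's solution at 25° C. for 7 days. Tips of the first leaf, 35 mm long (five tips, 100 mg combined), stood in […] of test solution in microtiter wells. After 96 h in the dark at 25° C., chlorophyll was extracted in 80% ethanol at 80° C. and read at 665 nm. Activity is relative to 10^−4 M BAP (100%).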

[4] = test system: human diploid fibroblasts (HCA cells, HCA20, HCA40, HCA60); assay: Senescent cells (β-galactosidase staining) in culture of human fibroblasts; assay type: cell-based; settings: for SENESCENT CELLS (%) HCA20: human fibroblasts passage 20 (HCA20); for SENESCENT CELLS (%) HCA40: human fibroblasts passage 40 (HCA40); for SENESCENT CELLS (%) HCA60: human fibroblasts passage 60 (HCA60)
Procedure: In this example, human diploid fibroblasts (HCA cells of various passage levels: passage 20—designated HCA20; passage 40—designated HCA40; passage 60—designated HCA60) were stained for β-galactosidase activity. The medium used for the cell cultivation was removed, the cells were washed twice in […], and fixed in 2-3 ml of fixing solution comprised of a 2% formaldehyde and 0.2% glutaraldehyde in PBS. The cells were incubated at room temperature for 5 minutes, and then washed twice with PBS. The cells were subsequently incubated at 37° C.

[5] = test system: promyelocytic HL-60 leukemia; assay: In vitro cytotoxicity, Calcein AM assay; settings: read-out: GI50 HL60
Procedure: (§1) Because only metabolically active cells cleave Calcein AM, these assays detect viable cells exclusively. The quantity of reduced Calcein AM corresponds to the number of vital cells in the culture.
(§2) The cells were maintained in Nunc/Corning 80 cm^2 plastic tissue culture flasks and cultured in cell culture medium (DMEM with 5 g/l glucose, 2 mM glutamine, 100 U/ml penicillin, 100 mg/ml streptomycin, 10% fetal calf serum and sodium bicarbonate).
(§3) The cell suspensions that were prepared and diluted according to the particular cell type and the expected target cell density (2,500-30,000 cells per well based on cell growth characteristics) were added by pipette (80 ml) into 96-well microtiter plates. Inoculates were allowed a pre-incubation period of 24 hours at 37° C. and 5% CO2 for stabilization. Four-fold dilutions of the intended test concentration were added at time zero in 20 ml aliquots to the microtiter plate wells. Usually, the compound tested was evaluated at six 4-fold dilutions. […] All drug concentrations were examined in duplicate. Incubations of cells with the tested compounds lasted for 72 hours at 37° C., in a 5% CO2 atmosphere and 100% humidity. At the end of the incubation period, the cells were assayed by using Calcein AM. Ten microliters of the stock solution were pipetted into each well and incubated for 1 hour. Fluorescence (FD) was measured with the Labsystem FIA Reader Fluoroscan Ascent (UK).

[6] = test system: breast carcinoma cell line MCF-7; assay: In vitro cytotoxicity, Calcein AM assay; settings: read-out: GI50 MCF7
Procedure: as §1, §2, §3

[7] = test system: mouse fibroblasts NIH3T3; assay: In vitro cytotoxicity, Calcein AM assay; settings: read-out: GI50 NIH-3T3
Procedure: as §1, §2, §3

[8] = test system: human osteosarcoma HOS; assay: In vitro cytotoxicity, Calcein AM assay; settings: read-out: GI50 HOS
Procedure: as §1, §2, §3

[9] = test system: human myeloid leukemia K-562; assay: In vitro cytotoxicity, Calcein AM assay; settings: read-out: GI50 K-562; K-562, 72 hours, Calcein AM
Procedure: as §1, §2, §3

[10] = test system: Human T-lymphoblastic leukemia cell line CEM; assay: In vitro cytotoxicity, Calcein AM assay; settings: read-out: GI50 CEM
Procedure: as §1, §2, §3

| Compound | concentration with highest activity [1] | Activity (%) [10^−5 mol · l^−1 BAP = 100%] [1] [%] | concentration with highest activity [2] | Activity (%) [10^−5 mol · l^−1 BAP = 100%] [2] [%] | activity (%) [10^−4 mol · l^−1 BAP = 100%] [3] [%] | concentration with highest activity [3] | SENESCENT CELLS (%) HCA20 [4] [%] | SENESCENT CELLS (%) HCA40 [4] [%] | SENESCENT CELLS (%) HCA60 [4] [%] | GI50 ([5]; Homo sapiens, HL-60, 72 h) [µM] | GI50 ([6]; Homo sapiens, MCF7, 72 h) [µM] | GI50 ([7]; Mus musculus, NIH3T3, 72 h) [µM] | GI50 ([8]; Homo sapiens, 72 h) [µM] | GI50 ([6]; MCF7, 72 hours, Calcein AM) [µM] | GI50 ([8]; HOS, 72 hours, Calcein AM) [µM] | GI50 [9] [µM] | GI50 ([5]; HL60, 72 hours, Calcein AM) [µM] | GI50 ([7]; NIH-3T3, 72 hours, Calcein AM) [µM] | GI50 ([10]; Homo sapiens, 72 h) [µM] | GI50 ([10]; CEM, 72 hours, Calcein AM) [µM] |
| --- | --- | --- | --- | --- | --- | --- | --- | --- | --- | --- | --- | --- | --- | --- | --- | --- | --- | --- | --- | --- |
| Oc1ccc(CNc2ncnc3c2ncn3C2CCCO2)cc1 (stereo not drawn) [6-(4-hydroxybenzylamino)-9-(tetrahydrofuran-2-yl)-purine] | 10^−5 mol · l^−1 | 27 | 10^−4 mol · l^−1 | 13 | 3 | 10^−4 mol · l^−1 | 5 | 5 | 16 | > 167 | > 167 | > 167 | > 167 |  |  |  |  |  |  |  |
| Oc1coc(CNc2ncnc3c2ncn3C2CCCCO2)c1 (stereo not drawn) | 10^−6 mol · l^−1 | 91 | 10^−4 mol · l^−1 | 115 | 101 | 10^−4 mol · l^−1 | 4 | 4 | 16 |  |  |  |  | > 167 | > 167 | > 167 |  |  |  |  |
| Cc1cc(Nc2ncnc3c2ncn3C2CCCCO2)ccc1O (stereo not drawn) [4-hydroxy-3-methylanilino / tetrahydropyran-2-yl] | 10^−5 mol · l^−1 | 12 | 10^−4 mol · l^−1 | 15 | 7 | 10^−4 mol · l^−1 | 3 | 4 | 19 |  |  |  |  | > 167 | > 167 |  | > 167 | > 167 |  |  |
| C/C(=C\CNc1ncnc2nc[nH]c12)CO [6-((E)-4-hydroxy-3-methylbut-2-enylamino)purine, reference compound] |  | 86.9 |  | 116 | 28.3 |  |  |  |  | > 167 | > 167 | > 167 | > 167 |  |  |  |  |  | > 167 |  |
| Cc1cc(Nc2ncnc3c2ncn3C2CCCCO2)ccc1O (stereo not drawn) [4-hydroxy-5-methylanilino / tetrahydropyran-2-yl] | 10^−5 mol · l^−1 | 10 | 10^−4 mol · l^−1 | 17 | 10 | 10^−4 mol · l^−1 | 4 | 4 | 18 |  |  |  |  | > 167 | > 167 |  | > 167 | > 167 |  |  |
| Cc1cc(CNc2ncnc3c2ncn3C2CCCCO2)ccc1O (stereo not drawn) [4-hydroxy-3-methylbenzylamino / tetrahydropyran-2-yl] | 10^−5 mol · l^−1 | 4 | 10^−4 mol · l^−1 | 7 | 9 | 10^−4 mol · l^−1 | 4 | 6 | 22 |  |  |  |  | > 167 | > 167 |  | > 167 | > 167 |  | > 167 |
| COc1ccc(CNc2ncnc3c2ncn3C2CCCCO2)cc1O (stereo not drawn) | 10^−6 mol · l^−1 | 55 | 10^−4 mol · l^−1 | 41 | 47 | 10^−4 mol · l^−1 | 5 | 7 | 29 |  |  |  |  | > 167 | > 167 |  | > 167 | > 167 |  |  |
| CC(C)=CCNc1ncnc2nc[nH]c12 [isopentenylamino / H] |  |  |  |  |  |  |  |  |  |  |  |  |  | > 167 | > 167 | 147 | > 167 | > 167 |  | 92.2 |
| Cc1cc(CNc2ncnc3c2ncn3C2CCCCO2)ccc1O (stereo not drawn) [4-hydroxy-5-methylbenzylamino / tetrahydropyran-2-yl] | 10^−5 mol · l^−1 | 6 | 10^−4 mol · l^−1 | 5 | 3 | 10^−4 mol · l^−1 | 3 | 4 | 20 |  |  |  |  | > 167 | > 167 |  | > 1670 | > 1670 |  | > 167 |
| C/C(=C\CNc1ncnc2c1ncn2C1CCCCO1)CO (stereo not drawn) [6-(E)-(4-hydroxy-3-methylbut-2-en-1-ylamino)-9-(tetrahydropyran-2-yl)purine] | 10^−5 mol · l^−1 | 96.5 | 10^−4 mol · l^−1 | 299.4 | 38.2 | 10^−4 mol · l^−1 |  |  |  | > 167 | > 167 | > 167 | > 167 |  |  |  |  |  | > 167 |  |
| c1coc(CNc2ncnc3[nH]cnc23)c1 [furfurylamino / H, reference compound] |  |  |  |  |  |  |  |  |  |  |  |  |  | > 167 | > 167 | 164 | 149 | > 167 |  | 155 |
